From patent US20030144292A1, “Carbocyclic side chain containing, N-substituted metalloprotease inhibitors” (priority 2000, published 2003)

Tests used:
Type in all cases: in vivo
[1] = test system: human subject suffering from rheumatoid arthritis; experiment: Example A: oral tablet treatment of rheumatoid arthritis; settings: tablet with 15 mg compound, three tablets per day orally for 2 years
Description: A tablet composition for oral administration, according to the present invention, is made comprising:
A human subject weighing 60 kg (132 lbs), suffering from rheumatoid arthritis, is treated by a method of this invention. Specifically, for 2 years, a regimen of three tablets per day is administered orally to said subject.

[2] = test system: human subject with a premetastatic tumor; experiment: Example G: parenteral suspension injected next to a premetastatic tumor; settings: 100 mg/mL suspension, about 2.0 mL injected beside the tumor twice daily, after 30 days
Description: A composition for parenteral administration is made comprising:
The above ingredients are mixed, forming a suspension. Approximately 2.0 mL of the suspension is administered, via injection, to a human subject with a premetastatic tumor. The injection site juxtaposes the tumor. This dosage is repeated twice daily, for approximately 30 days.

[3] = test system: human subject suffering from osteoarthritis; experiment: Example B: oral capsule treatment of osteoarthritis; settings: capsule containing 70 mg daily for 5 years
Description: A capsule for oral administration, according to the present invention, is made comprising:
A human subject weighing 90 kg (198 lbs.), suffering from osteoarthritis, is treated by a method of this invention. Specifically, for 5 years, a capsule containing 70 mg of the compound of Example 3 is administered daily to said subject.

[4] = test system: patient having deep corneal abrasion; experiment: Example C: saline-based eye drop for deep corneal abrasion; settings: 5% w/w drop to each eye twice a day
Text: A saline-based composition for local administration, according to the present invention, is made comprising:
A patient having deep corneal abrasion applies the drop to each eye twice a day.

asthma sufferer = experiment: Example E: inhalation aerosol for asthma; settings: 5.0% w/v aerosol, 0.01 mL sprayed into the mouth while inhaling
[5] = test system: patient suffering from chemical burns; experiment: Example D: topical composition for chemical burns; settings: 0.20% w/v topical composition at each dressing change (b.i.d.)
Text: A topical composition for local administration, according to the present invention, is made comprising:
A patient suffering from chemical burns applies the composition at each dressing change (b.i.d.).

COc1ccc(-c2ccc(S(=O)(=O)N(C)C(C(=O)O)C3CCC(O)CC3)cc2)cc1 (centres unmarked) [Example 1, N-{[4′-Methoxy-(1,1′-biphenyl)-4-yl]-sulfonyl-N-methyl-amino}-(4-hydroxycyclohexan-1-yl)-acetic Acid]
inflammation at end of treatment period [1]: reduced inflammation
mobility and pain at end of treatment period [1]: improved mobility without concomitant pain

COc1ccc(-c2ccc(S(=O)(=O)N(C)[C@@H](C(=O)O)C3CCC4(CC3)OCCCO4)cc2)cc1 [Example 2, (R)-N-{[4′-methoxy-(1,1′-biphenyl)-4-yl]-sulfonyl}-N-methylamino-(1,5-dioxa-spiro[5.5]undec-9-yl)-acetic Acid]
symptoms of the disease [2]: subside

CN([C@@H](C(=O)O)C1CCC2(CC1)OCCCO2)S(=O)(=O)c1ccc(-c2ccc(Br)cc2)cc1 [Example 3, (R)-N-{[4′-bromo-(1,1′-biphenyl)-4-yl]-sulfonyl}-N-methylamino-(1,5-dioxa-spiro[5.5]undec-9-yl)-acetic Acid]
advancement of erosion/fibrillation of the articular cartilage (x-ray, arthroscopy and/or MRI) [3]: no further advancement

COc1ccc(-c2ccc(S(=O)(=O)N(C)C(C(=O)O)C3(SC)CCCC4(C3)OCCO4)cc2)cc1 (centres unmarked) [Example 10, (7-methylthio-1,4-Dioxaspiro[4.5]dec-7-yl)-N-{[4′-Methoxy-(1,1′-biphenyl)-4-yl]-sulfonyl}-N-methylamino-acetic Acid]
healing of corneal abrasion [4]: speeded
visual sequelae [4]: no visual sequelae

COc1ccc(-c2ccc(S(=O)(=O)N(C)C(C(=O)O)C3CCC(N4CCCC4=O)CC3)cc2)cc1 (centres unmarked) [Example 19, N-{[4′-Methoxy-(1,1′-biphenyl)-4-yl]-sulfonyl-N-methylamino}-[4-(2-oxopyrrolidin-1N-yl)-cyclohexan-1-yl]-acetic Acid]
asthma symptoms (asthma sufferer): diminished

COc1ccc(-c2ccc(S(=O)(=O)N(C)C(C(=O)O)C3CCC(N4CCOC4=O)CC3)cc2)cc1 (centres unmarked) [Example 21, N-{[4′-Methoxy-(1,1′-biphenyl)-4-yl]-sulfonyl-N-methylamino}-[4-(oxazolidin-2-one-3N-yl)-cyclohexan-1-yl]-acetic Acid]
scarring [5]: substantially diminished
